According to patent US20020098477A1, “METHODS FOR SCREENING NUCLEAR TRANSCRIPTION FACTORS FOR THE ABILITY TO MODULATE AN ESTROGEN RESPONSE” (priority 1997, published 2002):

Experiments:
PR-A [1] = test: ColALuc reporter assay in CV-1 cells transfected with ER, PR-A and c-Jun; format: cell-based, monkey
Protocol: (§1) (FIG. 8A) HeLa cells were transfected with ColALuc (5 μg), ER (1 μg), PR-A or PR-B (1 μg), and c-Jun (3 μg). Data are from four separate transfections from three experiments for PR-A and from two transfections from two experiments for PR-B. Columns represent the average fold induction. (FIG. 8B) CV-1 cells were transfected with ColALuc (5 μg), ER (HE0, 0.5 μg), PR-A (1 μg) and c-Jun (3 μg). Data is from one experiment. Columns represent the average of two treatment points. Similar experiments have been repeated 3 times or less. (FIGS. 8A and 8B) Cells were treated with steroids immediately after transfection and harvested 40 hrs later. Error bars represent standard deviation.
(§2) Coll517mAP-1-CAT contains three point mutations in the consensus AP-1 response element (TGAGTCA mutated to GTACTCA). […]
(§3) Cells were transfected by electroporation as previously described (Webb et al. (1995) Mol. Endo., 9: 443-456). […] The efficiency of transfection was monitored by co-transfection with either a (hCG reporter driven by an actin promoter (Lopez et al. (1993) Mol. Cell. Biol., 13: 3042-3049) or by co-transfection with pJ3LACZ. CAT or luciferase activity was then corrected by dividing by hCG levels or β-galactosidase activity. Five micrograms of collagenase reporter plasmid, and 1 μg of GR expression vector were used in all experiments unless otherwise indicated. […]

PR-B = test: ColALuc reporter assay in HeLa cells transfected with ER, PR-B and c-Jun; format: cell-based, human
Protocol: as §1, §2, §3

PR-A [2] = conditions: HeLa, 10^−7 M
Protocol: (FIG. 8A) HeLa cells were transfected with ColALuc (5 μg), ER (1 μg), PR-A or PR-B (1 μg), and c-Jun (3 μg). Data are from four separate transfections from three experiments for PR-A and from two transfections from two experiments for PR-B. Columns represent the average fold induction. […] Similar experiments have been repeated 3 times or less. (FIGS. 8A and 8B) Cells were treated with steroids immediately after transfection and harvested 40 hrs later. Error bars represent standard deviation.
All cells were maintained in DME medium without phenol red. The medium was supplemented by serum (Sigma) which was tested for low estrogenic activity prior to use. […] In these experiments cells were treated with media containing charcoal-treated serum the night prior to transfection.

AP-1 response element = test: Coll73-LUC collagenase reporter gene assay in HeLa cells transfected with ER and GR; format: cell-based, human; conditions: for AP-1 activation at dose used: TNF-α 10 ng/ml, data not shown
Excerpt: Coll73-LUC and Coll60-CAT have been previously described (Webb et al. (1995) Mol. Endo., 9: 443-456; Lopez et al. (1993) Mol. Cell Biol., 13: 3042-3049). Coll73-LUC consists of −73 to +63 base pairs of the collagenase promoter upstream of the Luciferase reporter gene. Coll517-CAT and Coll517mAP-1-CAT each contain −517 to +63 of the collagenase promoter (Webb et al. (1995) Mol. Endo., 9: 443-456).
Coll517mAP-1-CAT contains three point mutations in the consensus AP-1 response element (TGAGTCA mutated to GTACTCA). ColALuc contains the collagenase AP-1 response element upstream of the minimal drosophila alcohol dehydrogenase promoter (Starr et al., (1996) Genes & Dev., 10: 1271-1283). The ER expression vectors have been previously described: PHE0 (Green et al. (1986) Nature, 320: 134-139), PHEG0 (Tora et al. (1989) EMBO J. 8: 1981-1986), HE11 (Kumar et al. (1986) EMBO J., 5: 2231-2236), and HE15 (Kumar et al. (1987) Cell, 51: 941-951). PHE0 contains a point mutation (Gly400Val). PHEG0 is the wild type ER. PHE0 has reduced affinity for estrogens which allows for studies in cell culture without inadvertent activation. The protein coding regions of the ER plasmids were cloned into the multiple cloning site of the pSG5 expression vector. pRSVhGR (McEwan et al. (1993) Mol. Cell. Biol., 13: 399-407) consists of a cDNA encoding the human GR coding region inserted into an expression vector driven by the Rous sarcoma virus promoter. The PR-A (PhPR-60) and PR-B (hPR65) plasmids were derived from T47D cDNA and genomic DNA (Law et al (1987) Proc. Natl. Acad. Sci., USA, 84: 2877-2881; Wei et al. (1988) Mol. Endo., 2: 62-72) and cloned into an expression vector derived from pLEN (Kushner et al. (1990) Mol. Endocrinol. 4: 1465-1473). The human c-Jun (Turner et al. (1989) Science, 243: 1689-1694)) and rat c-Fos (Cohen et al. (1989) Genes & Dev., 3: 173-184)), have been previously described. The beta-actin-hCG construct has been previously described (Lopez et al. (1993) Mol. Cell. Biol., 13: 3042-3049). The pJ3-LacZ plasmid is pBR322-based and contains an SV40 promoter which activates LacZ.
All cells were maintained in DME medium without phenol red. […]
as §3

CCC(=O)[C@@]1(C)CC[C@H]2[C@@H]3CCC4=CC(=O)CCC4=C3CC[C@@]21C [R5020]
progestin inhibition of estradiol with increased amounts of c-Jun (PR-A [1]; CV-1, PR-A, increasing c-Jun): maintained
effect on the estradiol response (PR-A [1]; CV-1, transfected PR-A): inhibited the estradiol response
activity of AP-1 site, single steroid (PR-B; 10^−7 M): inhibited the basal activity
progestin inhibition on treatment with both steroids (PR-B; estradiol + progestin): loss of RU5020 inhibition
activity of AP-1 site, single steroid (PR-A [2]): inhibited the basal activity

CCCCCCCCCCCCCC(=O)O[C@@H]1[C@@H](C)[C@@]2(O)[C@@H](C=C(CO)C[C@]3(O)C(=O)C(C)=C[C@@H]23)[C@@H]2C(C)(C)[C@]12OC(C)=O [PMA]
AP-1 activation at dose used (AP-1 response element; PMA 10^−7 M): maximal AP-1 activation
transcriptional activity in the absence of steroids (AP-1 response element; PMA 10^−7 M, ER 5 μg, GR 1 μg): ten fold stimulation

CC/C(=C(\c1ccccc1)c1ccc(OCCN(C)C)cc1)c1ccccc1 [tamoxifen]
tamoxifen effect on transcription at Coll73 (AP-1 response element; tamoxifen 5×10^−6 M, HE0, GR 1 μg): activation

TNF-α
AP-1 activation at dose used (AP-1 response element; PMA 10^−7 M): maximal AP-1 activation
